Source: ChEMBL document CHEMBL4433259, “Rifamycin derivatives active against pathogenic rapidly-growing mycobacteria” (Bioorg Med Chem Lett, 2019)
The source made the active and inactive calls. The rule behind the calls is not given here.

How the values were obtained:
[1] = Antimycobacterial activity against Mycobacterium abscessus subsp. massiliense assessed as reduction in microbial growth by CLSI method; type: functional; details: Mycobacteroides abscessus
[2] = Antimycobacterial activity against Mycobacterium abscessus subsp. bolletii assessed as reduction in microbial growth by CLSI method; type: functional; details: Mycobacteroides abscessus
[3] = tested on: Mycolicibacterium fortuitum; assay: Antimycobacterial activity against Mycobacterium fortuitum assessed as reduction in microbial growth by CLSI method; type: functional
[4] = tested on: Mycobacteroides chelonae; assay: Antimycobacterial activity against Mycobacterium chelonae assessed as reduction in microbial growth by CLSI method; type: functional
[5] = Antimycobacterial activity against Mycobacterium abscessus subsp. abscessus assessed as reduction in microbial growth by CLSI method; type: functional; details: Mycobacteroides abscessus
[6] = tested on: Mycolicibacterium smegmatis; assay: Antimycobacterial activity against Mycobacterium smegmatis assessed as reduction in microbial growth by CLSI method; type: functional
[7] = tested on: Mycobacteroides abscessus; assay: Antimycobacterial activity against Mycobacterium abscessus ATCC 19977 assessed as inhibition zone diameter at 3.125 ng after 3 days by disc diffusion method; type: functional
[8] = tested on: Mycobacteroides abscessus; assay: Antimycobacterial activity against Mycobacterium abscessus ATCC 19977 assessed as inhibition zone diameter at 800 ng after 3 days by disc diffusion method; type: functional
[9] = tested on: Mycobacteroides abscessus; assay: Antimycobacterial activity against Mycobacterium abscessus ATCC 19977 assessed as inhibition zone diameter at 400 ng after 3 days by disc diffusion method; type: functional
[10] = tested on: Mycobacteroides abscessus; assay: Antimycobacterial activity against Mycobacterium abscessus ATCC 19977 assessed as inhibition zone diameter at 200 ng after 3 days by disc diffusion method; type: functional
[11] = tested on: Mycobacteroides abscessus; assay: Antimycobacterial activity against Mycobacterium abscessus ATCC 19977 assessed as inhibition zone diameter at 100 ng after 3 days by disc diffusion method; type: functional
[12] = tested on: Mycobacteroides abscessus; assay: Antimycobacterial activity against Mycobacterium abscessus ATCC 19977 assessed as inhibition zone diameter at 50 ng after 3 days by disc diffusion method; type: functional
[13] = tested on: Mycobacteroides abscessus; assay: Antimycobacterial activity against Mycobacterium abscessus ATCC 19977 assessed as inhibition zone diameter at 25 ng after 3 days by disc diffusion method; type: functional
[14] = tested on: Mycobacteroides abscessus; assay: Antimycobacterial activity against Mycobacterium abscessus ATCC 19977 assessed as inhibition zone diameter at 12.5 ng after 3 days by disc diffusion method; type: functional
[15] = tested on: Mycobacteroides abscessus; assay: Antimycobacterial activity against Mycobacterium abscessus ATCC 19977 assessed as inhibition zone diameter at 6.25 ng after 3 days by disc diffusion method; type: functional
[16] = tested on: Mycobacteroides abscessus; assay: Antimycobacterial activity against Mycobacterium abscessus ATCC 19977 assessed as inhibition zone diameter at 1.56 ng after 3 days by disc diffusion method; type: functional
[17] = tested on: Mycobacteroides abscessus; assay: Antimycobacterial activity against Mycobacterium abscessus FM0058 clinical isolate assessed as inhibition zone diameter at 800 ng after 3 days by disc diffusion method; type: functional
[18] = tested on: Mycobacteroides abscessus; assay: Antimycobacterial activity against Mycobacterium abscessus FM0058 clinical isolate assessed as inhibition zone diameter at 400 ng after 3 days by disc diffusion method; type: functional
[19] = tested on: Mycobacteroides abscessus; assay: Antimycobacterial activity against Mycobacterium abscessus FM0058 clinical isolate assessed as inhibition zone diameter at 200 ng after 3 days by disc diffusion method; type: functional
[20] = tested on: Mycobacteroides abscessus; assay: Antimycobacterial activity against Mycobacterium abscessus FM0058 clinical isolate assessed as inhibition zone diameter at 100 ng after 3 days by disc diffusion method; type: functional
[21] = tested on: Mycobacteroides abscessus; assay: Antimycobacterial activity against Mycobacterium abscessus FM0058 clinical isolate assessed as inhibition zone diameter at 50 ng after 3 days by disc diffusion method; type: functional
[22] = tested on: Mycobacteroides abscessus; assay: Antimycobacterial activity against Mycobacterium abscessus FM0058 clinical isolate assessed as inhibition zone diameter at 25 ng after 3 days by disc diffusion method; type: functional
[23] = tested on: Mycobacteroides abscessus; assay: Antimycobacterial activity against Mycobacterium abscessus FM0058 clinical isolate assessed as inhibition zone diameter at 12.5 ng after 3 days by disc diffusion method; type: functional
[24] = tested on: Mycobacteroides abscessus; assay: Antimycobacterial activity against Mycobacterium abscessus FM0058 clinical isolate assessed as inhibition zone diameter at 6.25 ng after 3 days by disc diffusion method; type: functional
[25] = tested on: Mycobacteroides abscessus; assay: Antimycobacterial activity against Mycobacterium abscessus FM0058 clinical isolate assessed as inhibition zone diameter at 3.125 ng after 3 days by disc diffusion method; type: functional
[26] = tested on: Mycobacteroides abscessus; assay: Antimycobacterial activity against Mycobacterium abscessus FM0058 clinical isolate assessed as inhibition zone diameter at 1.56 ng after 3 days by disc diffusion method; type: functional
[27] = tested on: Mycobacteroides abscessus; assay: Antimycobacterial activity against Mycobacterium abscessus ATCC 19977 assessed as inhibition zone diameter at <3 ng after 3 days by disc diffusion method; type: functional, organism-based
[28] = tested on: Mycobacteroides abscessus; assay: Antimycobacterial activity against Mycobacterium abscessus FM0058 clinical isolate assessed as inhibition zone diameter at <3 ng after 3 days by disc diffusion method; type: functional, organism-based
[29] = Drug metabolism in Mycobacterium abscessus ATCC 19977 assessed as adenine ribosylated diphosphate derivative formation by LC/MS analysis; type: ADME; details: Mycobacteroides abscessus
[30] = Drug metabolism in Mycobacterium abscessus ATCC 19977 assessed as C23 ribosylated derivative formation by LC/MS analysis relative to control; type: ADME; details: Mycobacteroides abscessus

Structure (SMILES)	MIC [1] [µg/mL]	MIC [2] [µg/mL]	MIC [3] [µg/mL]	MIC [4] [µg/mL]	MIC [5] [µg/mL]	MIC [6] [µg/mL]	diameter of the inhibition zone (DIZ) [7] [mm]	diameter of the inhibition zone (DIZ) [8] [mm]	diameter of the inhibition zone (DIZ) [9] [mm]	diameter of the inhibition zone (DIZ) [10] [mm]	diameter of the inhibition zone (DIZ) [11] [mm]	diameter of the inhibition zone (DIZ) [12] [mm]	diameter of the inhibition zone (DIZ) [13] [mm]	diameter of the inhibition zone (DIZ) [14] [mm]	diameter of the inhibition zone (DIZ) [15] [mm]	diameter of the inhibition zone (DIZ) [16] [mm]	diameter of the inhibition zone (DIZ) [17] [mm]	diameter of the inhibition zone (DIZ) [18] [mm]	diameter of the inhibition zone (DIZ) [19] [mm]	diameter of the inhibition zone (DIZ) [20] [mm]	also measured
COc1ccccc1-c1cc(CNC(=O)O[C@H]2[C@H](C)[C@H](O)[C@H](C)[C@@H](O)[C@@H](C)/C=C/C=C(/C)C(=O)NC3=C(N4CCOCC4)C(=O)c4c(c(O)c(C)c5c4C(=O)[C@@](C)(O/C=C/[C@H](OC)[C@H]2C)O5)C3=O)on1	64	16	0.25	64	64	0.12															
COc1ccc(CNC(=O)O[C@H]2[C@H](C)[C@H](O)[C@H](C)[C@@H](O)[C@@H](C)/C=C/C=C(/C)C(=O)NC3=C(N4CCOCC4)C(=O)c4c(c(O)c(C)c5c4C(=O)[C@@](C)(O/C=C/[C@H](OC)[C@H]2C)O5)C3=O)cc1	8	16	1	> 64	64	0.06															
CO[C@H]1/C=C/O[C@@]2(C)Oc3c(C)c(O)c4c(O)c(c(/C=N/N5CCN(C)CC5)c(O)c4c3C2=O)NC(=O)/C(C)=C\C=C\[C@H](C)[C@H](O)[C@@H](C)[C@@H](O)[C@@H](C)[C@H](OC(C)=O)[C@@H]1C [RIFAMPIN]	> 64	> 64	> 64	> 64	> 64	32	0	0	0	0	0	0	0	0	0	0	0	0	0	0	diameter of the inhibition zone (DIZ) [21]: 0 mm; diameter of the inhibition zone (DIZ) [22]: 0 mm; diameter of the inhibition zone (DIZ) [23]: 0 mm; diameter of the inhibition zone (DIZ) [24]: 0 mm; diameter of the inhibition zone (DIZ) [25]: 0 mm; diameter of the inhibition zone (DIZ) [26]: 0 mm; diameter of the inhibition zone (DIZ) [27]: inactive; diameter of the inhibition zone (DIZ) [28]: inactive; Drug metabolism [29]: Metabolite_Notdetected
CO[C@H]1/C=C/O[C@@]2(C)Oc3c(C)c(O)c4c(c3C2=O)C(=O)C(N2CCOCC2)=C(NC(=O)/C(C)=C\C=C\[C@H](C)[C@H](O)[C@@H](C)[C@@H](O)[C@@H](C)[C@H](OC(=O)NCc2cc(-c3ccccn3)no2)[C@@H]1C)C4=O	8	8	1	64	8	0.5	0	27	24	20	16	14	0	0	0	0	>30	30	25	20	diameter of the inhibition zone (DIZ) [21]: 9 mm; diameter of the inhibition zone (DIZ) [22]: 0 mm; diameter of the inhibition zone (DIZ) [23]: 0 mm; diameter of the inhibition zone (DIZ) [24]: 0 mm; diameter of the inhibition zone (DIZ) [25]: 0 mm; diameter of the inhibition zone (DIZ) [26]: 0 mm; diameter of the inhibition zone (DIZ) [27]: inactive; diameter of the inhibition zone (DIZ) [28]: inactive
CO[C@H]1/C=C/O[C@@]2(C)Oc3c(C)c(O)c4c(c3C2=O)C(=O)C(N2CCOCC2)=C(NC(=O)/C(C)=C\C=C\[C@H](C)[C@H](O)[C@@H](C)[C@@H](O)[C@@H](C)[C@H](OC(=O)NCc2cc(-c3ccccc3)no2)[C@@H]1C)C4=O	0.5	0.125	0.0625	0.5	0.5		0	24	20	16	12	7	0	0	0	0	>30	26	21	17	diameter of the inhibition zone (DIZ) [21]: 13 mm; diameter of the inhibition zone (DIZ) [22]: 7 mm; diameter of the inhibition zone (DIZ) [23]: 0 mm; diameter of the inhibition zone (DIZ) [24]: 0 mm; diameter of the inhibition zone (DIZ) [25]: 0 mm; diameter of the inhibition zone (DIZ) [26]: 0 mm; diameter of the inhibition zone (DIZ) [27]: inactive; diameter of the inhibition zone (DIZ) [28]: inactive
CO[C@H]1/C=C/O[C@@]2(C)Oc3c(C)c(O)c4c(c3C2=O)C(=O)C(N2CCOCC2)=C(NC(=O)/C(C)=C\C=C\[C@H](C)[C@H](O)[C@@H](C)[C@@H](O)[C@@H](C)[C@H](OC(=O)NCCN(C(C)C)C(C)C)[C@@H]1C)C4=O	1	0.25	8	1	0.5																
CO[C@H]1/C=C/O[C@@]2(C)Oc3c(C)c(O)c4c(c3C2=O)C(=O)C(N2CCOCC2)=C(NC(=O)/C(C)=C\C=C\[C@H](C)[C@H](O)[C@@H](C)[C@@H](O)[C@@H](C)[C@H](OC(=O)NC2CCN(Cc3ccccc3)CC2)[C@@H]1C)C4=O	0.25	0.0625	< 0.03	< 0.03	< 0.03	0.12	0	>30	>30	>30	24	21	16	13	0	0	>30	>30	29	24	diameter of the inhibition zone (DIZ) [21]: 22 mm; diameter of the inhibition zone (DIZ) [22]: 20 mm; diameter of the inhibition zone (DIZ) [23]: 16 mm; diameter of the inhibition zone (DIZ) [24]: 11 mm; diameter of the inhibition zone (DIZ) [25]: 0 mm; diameter of the inhibition zone (DIZ) [26]: 0 mm; diameter of the inhibition zone (DIZ) [27]: inactive; diameter of the inhibition zone (DIZ) [28]: inactive; Drug metabolism [30]: Metabolite_Notdetected; Drug metabolism [29]: Metabolite_Notdetected
CO[C@H]1/C=C/O[C@@]2(C)Oc3c(C)c(O)c4c(c3C2=O)C(=O)C(N2CCOCC2)=C(NC(=O)/C(C)=C\C=C\[C@H](C)[C@H](O)[C@@H](C)[C@@H](O)[C@@H](C)[C@H](OC(=O)NCc2ccc(N(C)C)cc2)[C@@H]1C)C4=O	8	8	1	16	8	0.06															
